According to patent publication US20120121591A1 (priority 2009, published 2012):

Key:
Type in all cases: cell-based
[1] = tested on: IFN-g secretion from T cells in human whole blood; conditions: read-out: WB (IFNg) IC50 (nM, Avg)
hKv1.3 = hKv1.3 (Homo sapiens, UniProt P22001); test: cell-based; conditions: Kv1.3 (IWQ) IC50 (nM, Avg)
[2] = tested on: IL-2 secretion from T cells in human whole blood; conditions: read-out: WB (IL-2) IC50 (nM, Avg)

Sequence of hKv1.3 (P22001 whole entry): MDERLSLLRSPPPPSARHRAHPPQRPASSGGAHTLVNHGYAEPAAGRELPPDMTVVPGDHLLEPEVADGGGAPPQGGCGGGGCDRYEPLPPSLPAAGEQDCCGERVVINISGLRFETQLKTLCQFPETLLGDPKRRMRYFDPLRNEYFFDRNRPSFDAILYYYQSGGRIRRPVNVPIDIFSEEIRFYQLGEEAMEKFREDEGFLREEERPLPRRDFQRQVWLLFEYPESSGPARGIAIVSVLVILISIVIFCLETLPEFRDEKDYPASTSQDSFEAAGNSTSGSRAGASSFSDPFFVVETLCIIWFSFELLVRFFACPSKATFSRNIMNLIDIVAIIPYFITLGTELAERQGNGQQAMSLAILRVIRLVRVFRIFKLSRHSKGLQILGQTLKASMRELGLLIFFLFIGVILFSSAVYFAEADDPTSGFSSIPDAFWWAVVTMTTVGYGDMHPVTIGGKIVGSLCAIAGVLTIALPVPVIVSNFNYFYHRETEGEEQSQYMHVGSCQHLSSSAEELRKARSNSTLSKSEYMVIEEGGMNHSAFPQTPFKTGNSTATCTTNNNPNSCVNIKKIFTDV

SMILES | IC50 [1] | IC50 (hKv1.3) | IC50 [2]
CCCC[C@@H]1NC(=O)[C@H](CO)NC(=O)[C@H](Cc2c[nH]cn2)NC(=O)[C@H](CCCCN)NC(=O)[C@@H]2CSSC[C@@H]3NC(=O)[C@H]([C@@H](C)O)NC(=O)[C@H](CCCNC(=N)N)NC(=O)[C@H](CCCCN)NC(=O)[C@H](CSSC[C@H](NC(=O)[C@H](CCCNC(=N)N)NC(=O)[C@H](CO)NC(=O)[C@H](CCCCN)NC(=O)[C@@H]4CCCN4C(=O)[C@H]([C@@H](C)CC)NC(=O)[C@H]([C@@H](C)O)NC(=O)[C@H](CC(=O)O)NC(=O)[C@H]([C@@H](C)CC)NC(=O)[C@@H](NC(=O)[C@H](CO)NC(=O)[C@@H](N)CCCNC(=N)N)CSSC[C@@H](C(N)=O)NC(=O)[C@H]([C@@H](C)O)NC(=O)CNC3=O)C(=O)N[C@@H]([C@@H](C)O)C(=O)N[C@@H](C)C(=O)N[C@@H](Cc3ccccc3)C(=O)N[C@@H](CCCCN)C(=O)N2)NC(=O)[C@H](Cc2ccccc2)NC(=O)[C@H](Cc2cccc3ccccc23)NC(=O)[C@H](CC(C)C)NC(=O)[C@H](CCCNC(=N)N)NC(=O)[C@H](Cc2ccc(O)cc2)NC(=O)[C@H](CCCCN)NC1=O [[Lys16,29; 1-Nal26;Arg30;Nle21]ShK-amide] | 8.22 nM | 2.33 nM | 9.44 nM
CC[C@H](C)[C@@H]1NC(=O)[C@@H](NC(=O)[C@H](CO)NC(=O)[C@@H](N)CCCNC(=N)N)CSSC[C@@H](C(=O)O)NC(=O)[C@H]([C@@H](C)O)NC(=O)CNC(=O)[C@@H]2CSSC[C@@H]3NC(=O)[C@H](CCC(N)=O)NC(=O)[C@H](Cc4ccccc4)NC(=O)[C@H](C)NC(=O)[C@H]([C@@H](C)O)NC(=O)[C@H](CSSC[C@H](NC(=O)[C@H](Cc4ccccc4)NC(=O)[C@H](CO)NC(=O)[C@H](CC(C)C)NC(=O)[C@H](C)NC(=O)[C@H](Cc4ccc(O)cc4)NC(=O)[C@H](CCCCN)NC(=O)[C@H](CCSC)NC(=O)[C@H](CO)NC(=O)[C@H](Cc4c[nH]cn4)NC(=O)[C@H](CCCCN)NC3=O)C(=O)N[C@@H](CCCNC(=N)N)C(=O)N[C@@H](CCCCN)C(=O)N[C@@H]([C@@H](C)O)C(=O)N2)NC(=O)[C@H](CCCNC(=N)N)NC(=O)[C@H](CO)NC(=O)[C@H](CCCCN)NC(=O)[C@@H]2CCCN2C(=O)[C@H]([C@@H](C)CC)NC(=O)[C@H]([C@@H](C)O)NC(=O)[C@H](CC(=O)O)NC1=O [[Ala24]ShK] | 0.216 nM | 0.062 nM | 0.043 nM
CC[C@H](C)[C@@H]1NC(=O)[C@@H](NC(=O)[C@H](CO)NC(=O)[C@@H](N)CCCNC(=N)N)CSSC[C@@H](C(N)=O)NC(=O)[C@H]([C@@H](C)O)NC(=O)CNC(=O)[C@@H]2CSSC[C@@H]3NC(=O)[C@H](CCCCN)NC(=O)[C@H](Cc4ccccc4)NC(=O)[C@H](C)NC(=O)[C@H]([C@@H](C)O)NC(=O)[C@H](CSSC[C@H](NC(=O)[C@H](Cc4ccccc4)NC(=O)[C@H](CO)NC(=O)[C@H](CC(C)C)NC(=O)[C@H](CCCNC(=N)N)NC(=O)[C@H](Cc4ccc(O)cc4)NC(=O)[C@H](CCCCN)NC(=O)[C@H](CCSC)NC(=O)[C@H](CO)NC(=O)[C@H](Cc4c[nH]cn4)NC(=O)[C@H](CCCCN)NC3=O)C(=O)N[C@@H](CCCCN)C(=O)N[C@@H](C)C(=O)N[C@@H]([C@@H](C)O)C(=O)N2)NC(=O)[C@H](CCCNC(=N)N)NC(=O)[C@H](CO)NC(=O)[C@H](CCCCN)NC(=O)[C@@H]2CCCN2C(=O)[C@H]([C@@H](C)CC)NC(=O)[C@H]([C@@H](C)O)NC(=O)[C@H](CC(=O)O)NC1=O [[Lys16, 29;A1a30]ShK-amide] | 0.289 nM | 0.197 nM | 0.186 nM
CC[C@H](C)[C@@H]1NC(=O)[C@@H](NC(=O)[C@H](CO)NC(=O)[C@@H](N)CCCNC(=N)N)CSSC[C@@H](C(=O)O)NC(=O)[C@H]([C@@H](C)O)NC(=O)CNC(=O)[C@@H]2CSSC[C@@H]3NC(=O)[C@H](CCC(N)=O)NC(=O)[C@H](Cc4ccccc4)NC(=O)[C@H](C)NC(=O)[C@H]([C@@H](C)O)NC(=O)[C@H](CSSC[C@H](NC(=O)[C@H](Cc4ccccc4)NC(=O)[C@H](CCCNC(=N)N)NC(=O)[C@H](CC(C)C)NC(=O)[C@H](CCCNC(=N)N)NC(=O)[C@H](Cc4ccc(O)cc4)NC(=O)[C@H](CCCCN)NC(=O)[C@H](CCSC)NC(=O)[C@H](CO)NC(=O)[C@H](Cc4c[nH]cn4)NC(=O)[C@H](CCCCN)NC3=O)C(=O)N[C@@H](CCCNC(=N)N)C(=O)N[C@@H](CCCCN)C(=O)N[C@@H]([C@@H](C)O)C(=O)N2)NC(=O)[C@H](CCCNC(=N)N)NC(=O)[C@H](CO)NC(=O)[C@H](CCCCN)NC(=O)[C@@H]2CCCN2C(=O)[C@H]([C@@H](C)CC)NC(=O)[C@H]([C@@H](C)O)NC(=O)[C@H](CC(=O)O)NC1=O [[Arg26]ShK] | 0.572 nM | 0.279 nM | 0.208 nM
CC[C@H](C)[C@@H]1NC(=O)[C@@H](NC(=O)[C@H](CO)NC(=O)[C@@H](N)CCCNC(=N)N)CSSC[C@@H](C(=O)O)NC(=O)[C@H]([C@@H](C)O)NC(=O)CNC(=O)[C@@H]2CSSC[C@@H]3NC(=O)[C@H](CCC(N)=O)NC(=O)[C@H](Cc4ccccc4)NC(=O)[C@H](C)NC(=O)[C@H]([C@@H](C)O)NC(=O)[C@H](CSSC[C@H](NC(=O)[C@H](Cc4ccccc4)NC(=O)[C@H](CO)NC(=O)[C@H](CC(C)C)NC(=O)[C@H](CCCNC(=N)N)NC(=O)[C@H](Cc4ccc(O)cc4)NC(=O)[C@H](CCCCN)NC(=O)[C@H](CCSC)NC(=O)[C@H](CO)NC(=O)[C@H](Cc4c[nH]cn4)NC(=O)[C@H](CCCCN)NC3=O)C(=O)N[C@@H](CCCNC(=N)N)C(=O)N[C@@H](CCCCN)C(=O)N[C@@H]([C@@H](C)O)C(=O)N2)NC(=O)[C@H](CCCNC(=N)N)NC(=O)[C@H](CO)NC(=O)[C@H](CCCCN)NC(=O)[C@@H]2CCCN2C(=O)[C@H]([C@@H](C)CC)NC(=O)[C@H]([C@@H](C)O)NC(=O)[C@H](Cc2cccc3ccccc23)NC1=O [[1-Nal5]ShK] | 31.9 nM | 3.3 nM | 70.4 nM
CCCC[C@@H]1NC(=O)[C@H](CO)NC(=O)[C@H](Cc2c[nH]cn2)NC(=O)[C@H](CCCCN)NC(=O)[C@@H]2CSSC[C@@H]3NC(=O)[C@H]([C@@H](C)O)NC(=O)[C@H](CCCNC(=N)N)NC(=O)[C@H](CCCNC(=N)N)NC(=O)[C@H](CSSC[C@H](NC(=O)[C@H](CCCNC(=N)N)NC(=O)[C@H](CO)NC(=O)[C@H](CCCCN)NC(=O)[C@@H]4CCCN4C(=O)[C@H]([C@@H](C)CC)NC(=O)[C@H]([C@@H](C)O)NC(=O)[C@H](CC(=O)O)NC(=O)[C@H](CCC(=O)O)NC(=O)[C@@H](NC(=O)[C@H](CO)NC(=O)[C@@H](N)CCCNC(=N)N)CSSC[C@@H](C(N)=O)NC(=O)[C@H]([C@@H](C)O)NC(=O)CNC3=O)C(=O)N[C@@H]([C@@H](C)O)C(=O)N[C@@H](C)C(=O)N[C@@H](Cc3ccccc3)C(=O)N[C@@H](CCCCN)C(=O)N2)NC(=O)[C@H](Cc2ccccc2)NC(=O)[C@H](CO)NC(=O)[C@H](CC(C)C)NC(=O)[C@H](CCCNC(=N)N)NC(=O)[C@H](Cc2ccc(O)cc2)NC(=O)[C@H](CCCCN)NC1=O [[Glu4, Lys16, Nle21,Arg30]ShK-amide] | 1.34 nM | 0.132 nM | 1.18 nM
